Like-named read-outs stand apart in the source and are kept apart here.
What was measured:
[1] = tested on: HBV; test: Anti-viral assay in HepG2.2.15 cells: anti-HBV activity, HBV DNA in culture medium by qPCR; type: cell-based
Method: (§1) HepG2.2.15 (the HepG2.2.15 cell line can be produced by transfection of the HepG2 cell line as described in Sells, Chen, and Acs 1987 (Proc. Natl. Acad. Sci. USA 84: 1005-1009), and the HepG2 cell line is available from ATCC® under number HB-8065™)
(§2) HepG2.2.15 cells were plated into 96-well plate in 2% FBS culture medium at the density of 40,000 cells/well and 5,000cells/well for HBV inhibitory activity and cytotoxicity determination, respectively. After incubation at 37° C., 5% CO2 overnight, cells were treated with medium containing compounds for 6 days with medium and compounds refreshed after 3 days of treatment. Each compound was tested in a 1:3 serial dilutions at 8 different concentrations in triplicate. The highest concentration of the compounds was 10 uM or 1 uM for anti-HBV activity assay and 100 uM for cytotoxicity determination.
The change of HBV DNA level induced by the compounds was assessed by quantitative real-time polymerase chain reaction (qPCR). Briefly, the HBV DNA in the culture medium was extracted using QIAamp 96 DNA Blood Kit according to the manual and then quantified by real-time PCR assay using the primers and probe in the table 1 below.
(§3) EC50 and CC50 values are calculated by the […] PRISM software.

[2] = Cytotoxicity determination in HepG2.2.15 cells (CCK-8 assay); type: cell-based; details: human, 6 days treatment, CCK-8, highest concentration 100 uM
Method: as §1, §2
Cell viability was determined by CCK-8 assay. After 6 days of compounds treatment, 20 μl CCK-8 reagents were added to each well of cytotoxicity assay plates. Cell plates were incubated at 37° C., 5% CO2 for 2.5 h. The absorbance at 450 nm wavelength and the absorbance at 630 nm wavelength as reference was measured.
as §3

[3] = Hepatitis B virus, HepG2.2.15, 144 h, HepG2.2.15 cells, 6 days treatment, HBV DNA by qPCR, read-out: EC50

| Compound | EC50 [1, 3] | CC50 at 6 days [2] | EC50 ([1]; HepG2.2.15 cells, 6 days treatment, HBV DNA by qPCR, read-out: EC50) | EC50 ([1]; Hepatitis B virus, HepG2.2.15, 144 h) |
| --- | --- | --- | --- | --- |
| CCOC(=O)C1=C(CN2CCN3C(=S)N(CC(C)(C)C(=O)O)C[C@@H]3C2)NC(c2nccs2)=N[C@H]1c1ccc(C)cc1F (single isomer, unassigned) [Compound 25A, 3-(7-((5-(Ethoxycarbonyl)-6-(2-fluoro-4-methylphenyl)-2-(thiazol-2-yl)-3,6-dihydropyrimidin-4-yl)methyl)-3-thioxohexahydroimidazo[1,5-a]pyrazin-2(3H)-yl)-2,2-dimethylpropanoic acid] | 91.6 nM | 31000 nM | – | – |
| CCOC(=O)C1=C(CN2CCN3C(=S)N(CC(C)(C)C(=O)O)CC3C2)NC(c2nccs2)=NC1c1ccc(F)c(F)c1Cl (stereo not shown) [Compound 14, 3-(7-((6-(2-Chloro-3,4-difluorophenyl)-5-(ethoxycarbonyl)-2-(thiazol-2-yl)-3,6-dihydropyrimidin-4-yl)methyl)-3-thioxohexahydroimidazo[1,5-a]pyrazin-2(3H)-yl)-2,2-dimethylpropanoic acid] | 5.9 nM | 10600 nM | – | – |
| CCOC(=O)C1=C(CN2CCN3C(=S)N(CC4(C(=O)O)CC4)CC3C2)NC(c2nccs2)=N[C@H]1c1cccc(F)c1C (single isomer, unassigned) [Compound 9A] | – | 14900 nM | 64 nM | – |
| COC(=O)C1=C(CN2CCN3C(=S)N(CC(C)(C)C(=O)O)CC3C2)NC(c2nccs2)=NC1c1ccc(F)c(F)c1C (single isomer, unassigned) [Compound 12B, 3-(7-((6-(3,4-Difluoro-2-methylphenyl)-5-(methoxycarbonyl)-2-(thiazol-2-yl)-3,6-dihydropyrimidin-4-yl)methyl)-3-thioxohexahydroimidazo[1,5-a]pyrazin-2(3H)-yl)-2,2-dimethylpropanoic acid] | 2 nM | 14500 nM | – | – |
| CCOC(=O)C1=C(CN2CCN3C(=S)N(CC(C)(C)C(=O)O)C[C@@H]3C2)NC(c2nccs2)=N[C@H]1c1ccc(F)c(F)c1C (single isomer, unassigned) [Compound 15B, 3-(7-((6-(3,4-Difluoro-2-methylphenyl)-5-(ethoxycarbonyl)-2-(thiazol-2-yl)-3,6-dihydropyrimidin-4-yl)methyl)-3-thioxohexahydroimidazo[1,5-a]pyrazin-2(3H)-yl)-2,2-dimethylpropanoic acid] | 300 nM | 45000 nM | – | – |
| CCOC(=O)C1=C(CN2CCN3C(=S)N(CC(C)(C)C(=O)O)CC3C2)NC(c2nccs2)=NC1c1ccc(F)cc1Br (single isomer, unassigned) [Compound 13A, 3-(7-((6-(2-Bromo-4-fluorophenyl)-5-(ethoxycarbonyl)-2-(thiazol-2-yl)-3,6-dihydropyrimidin-4-yl)methyl)-3-thioxohexahydroimidazo[1,5-a]pyrazin-2(3H)-yl)-2,2-dimethylpropanoic acid] | 1 nM | 14700 nM | – | – |
| CCOC(=O)C1=C(CN2CCN3C(=S)N(C)C[C@@H]3[C@H]2C(=O)O)NC(c2nccs2)=N[C@H]1c1cccc(F)c1Cl (single isomer, unassigned) [Compound 19B, (trans)-7-((6-(2-chloro-3-fluorophenyl)-5-(ethoxycarbonyl)-2-(thiazol-2-yl)-3,6-dihydropyrimidin-4-yl)methyl)-2-methyl-3-thioxooctahydro-imidazo[1,5-a]pyrazine-8-carboxylic acid] | 1.8 nM | 51200 nM | – | – |
| CCOC(=O)C1=C(CN2CCN3C(=NC(C)=O)N(CC(C)(C)C(=O)O)CC3C2)NC(c2nccs2)=N[C@H]1c1cccc(F)c1C (stereo partly drawn) [Compound 8, (S)-3-(3-(Acetylimino)-7-((5-(ethoxycarbonyl)-6-(3-fluoro-2-methylphenyl)-2-(thiazol-2-yl)-3,6-dihydropyrimidin-4-yl)methyl)hexahydroimidazo[1,5-a]pyrazin-2(3H)-yl)-2,2-dimethylpropanoic acid] | – | > 100000 nM | – | 790 nM |

— patent publication US20230165865A1, “HETEROARYLDIHYDROPYRIMIDINE DERIVATIVES AND METHODS OF TREATING HEPATITIS B INFECTIONS” (Janssen Pharmaceutica NV, priority 2018, published 2023)
